Patent publication EP4603105A1, “PHARMACEUTICAL COMPOSITION CONTAINING CYCLIC COMPOUND HAVING SELECTIVE KRAS INHIBITORY EFFECT AGAINST HRAS AND NRAS” (CHUGAI SEIYAKU KABUSHIKI KAISHA, priority 2022, dated 2024)
pIC50: −log10 of the molar value. Where a SMILES comes first, the peptide text is derived from it. Bridges are numbered along the chain shown (N, C = ends). [ ]: non-standard residue; d: D form. The star is where a group is joined. hPhe(3-Cl-4-CF3) = N[C@@H](CCc1ccc(C(F)(F)F)c(Cl)c1)C(=O)O; NPrPhe(4-CF3) = CCCN[C@@H](Cc1ccc(C(F)(F)F)cc1)C(=O)O; NMeGly(cPent) = CN[C@H](C(=O)O)C1CCCC1; Pro(4,4-F2) = O=C(O)[C@@H]1CC(F)(F)CN1; NMeD = CN[C@@H](CC(=O)O)C(=O)O; NMeL = CN[C@@H](CC(C)C)C(=O)O; Morpholide = C1CN(*)CCO1; Ac5c = NC1(C(=O)O)CCCC1; Sar = CNCC(=O)O

Legend:
[1] = molecular target: GDP-bound NRAS wild-type protein (Homo sapiens, UniProt P01111); experiment: Binding to NRAS by surface plasmon resonance (SPR), KD and KD ratio to KRAS
GDP-bound NRAS wild-type protein, sequence (P01111 whole entry): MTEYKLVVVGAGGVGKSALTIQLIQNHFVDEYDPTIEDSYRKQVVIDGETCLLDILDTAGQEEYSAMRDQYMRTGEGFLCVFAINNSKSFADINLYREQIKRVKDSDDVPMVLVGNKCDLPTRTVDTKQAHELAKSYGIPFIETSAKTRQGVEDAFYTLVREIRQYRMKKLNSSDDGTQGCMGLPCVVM
How it was run: (§1)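 Compound binding is evaluated by SPR single-cycle kinetics, with concentrations added intermittently from low to high for 75 s each. Target surfaces carry GDP-loaded biotinylated Avi-RAS at about 100–300 RU, regenerated after each cycle; temperature 30°C. A 1:1 binding model gives KD.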

[2] = molecular target: HRAS wild-type protein (Homo sapiens, UniProt P01112); experiment: Binding to HRAS by surface plasmon resonance (SPR), KD and KD ratio to KRAS
HRAS wild-type protein, sequence (P01112 whole entry): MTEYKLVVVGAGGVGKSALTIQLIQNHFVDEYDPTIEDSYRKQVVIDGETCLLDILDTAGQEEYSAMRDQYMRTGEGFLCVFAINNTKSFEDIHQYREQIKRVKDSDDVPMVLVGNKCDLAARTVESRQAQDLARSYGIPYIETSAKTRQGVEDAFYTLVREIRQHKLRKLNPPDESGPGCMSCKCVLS
How it was run: as §1

[3] = test system: human lung cancer strain NCI-H441; format: cell-based
How it was run: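 Proliferation was scored by […] measured after the reagent was added to cultures kept at 37°C in 5% carbon dioxide.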

[4] = ratio of KD for GDP-bound NRAS wild-type protein to KD for KRAS
[5] = ratio of KD for HRAS wild-type protein to KD for KRAS
[6] = ratio of the KD value with respect to GDP-bound NRAS wild-type protein to the KD value with respect to KRAS
[7] = ratio of the KD value with respect to HRAS wild-type protein to the KD value with respect to KRAS

| SMILES | NRAS /KRAS [1, 4] | HRAS /KRAS [2, 5] | pIC50 [3] | NRAS /KRAS [1, 6] | HRAS /KRAS [2, 7] | NRAS /KRAS ([1]; ratio of KD value for GDP-bound NRAS wild-type protein to KD value for KRAS (SPR)) | HRAS /KRAS ([2]; ratio of KD value for HRAS wild-type protein to KD value for KRAS (SPR)) |
| --- | --- | --- | --- | --- | --- | --- | --- |
| C#CC[C@H]1C(=O)N[C@@H]([C@@H](C)CC)C(=O)N(C)CC(=O)N(C)[C@H]2C/C=C\CCN(C2=O)[C@@H](Cc2ccc(C(F)(F)F)cc2)C(=O)N(C)CC(=O)N[C@@H](CCc2ccc(C(F)(F)F)c(OC)c2)C(=O)N2CC[C@H]2C(=O)NC2(CC(C)(C)C2)C(=O)N(C)[C@@H](C2CCCC2)C(=O)N(C)[C@H](C(=O)N(C)C)CC(=O)N1C [PP2909] | B (a compound having 3 or more and less than 10 is denoted as B) | B (a compound having 3 or more and less than 10 is denoted as B) | 7.21 |  |  |  |  |
| CCO[C@@H]1C[C@H]2C(=O)N(C)C3(CC(C)(C)C3)C(=O)N(C)[C@@H](C3CCCC3)C(=O)N(C)[C@H](C(=O)N(C)C)CC(=O)N(C)[C@H]3CCCCCCc4ccc(cc4)C[C@@H](C(=O)N(C)CC(=O)N[C@@H](CCc4ccc(C(F)(F)F)c(OC)c4)C(=O)N2C1)N1CC/C=C\C[C@@H](C1=O)N(C)C(=O)CN(C)C(=O)[C@H]([C@@H](C)CC)NC3=O [PP3090] | A (a compound having 10 or more and less than 20 is denoted as A) | B (a compound having 3 or more and less than 10 is denoted as B) | 8.89 |  |  |  |  |
| CC[C@H](C)[C@@H]1NC(=O)[C@H](CC(C)C)N(C)C(=O)C[C@@H](C(=O)N2CCOCC2)N(C)C(=O)[C@H](C2CCCC2)N(C)C(=O)C2(CCC2)NC(=O)[C@@H]2C[C@@H](C(F)(F)F)CN2C(=O)[C@H](CCc2cc(F)c(C(F)(F)F)c(F)c2)NC(=O)CN(C)C(=O)[C@H](Cc2ccc(C(F)(F)F)cc2)N2CCCCC[C@@H](C2=O)N(C)C(=O)CN(C)C1=O [PP0818] | B (a compound having 3 or more and less than 10 is denoted as B) | B (a compound having 3 or more and less than 10 is denoted as B) | 7.36 |  |  |  |  |
| CCCN1C(=O)CN(C)C(=O)CNC(=O)[C@H]([C@@H](C)CC)NC(=O)[C@H](CC(C)C)N(C)C(=O)C[C@@H](C(=O)N2CCOCC2)N(C)C(=O)[C@H](C2CCCC2)N(C)C(=O)C2(CCCC2)NC(=O)[C@@H]2CC(F)(F)CN2C(=O)[C@H](CCc2ccc(C(F)(F)F)c(Cl)c2)NC(=O)CN(C)C(=O)[C@@H]1Cc1ccc(C(F)(F)F)cc1 [PP0394] ([NMeL]IG[Sar][NPrPhe(4-CF3)][Sar][hPhe(3-Cl-4-CF3)][Pro(4,4-F2)][Ac5c][NMeGly(cPent)][NMeD]-Morpholide; lactam N-11) |  |  | 8.59 | C (A compound having a KD ratio of 0.1 or more and less than 3 is denoted as C) | C (A compound having a KD ratio of 0.1 or more and less than 3 is denoted as C) |  |  |
| CCO[C@@H]1C[C@H]2C(=O)NC3(CC(C)(C)C3)C(=O)N(C)[C@@H](C3CCCC3)C(=O)N(C)[C@H](C(=O)N(C)C)CC(=O)N(C)[C@@H](CC3CCC3)C(=O)N[C@@H]([C@@H](C)CC)C(=O)N(C)CC(=O)N(C)[C@H]3C/C=C\CCN(C3=O)[C@@H](Cc3ccc(C(F)(F)F)cc3)C(=O)N(C)CC(=O)N[C@@H](CCc3cc(F)c(C(F)(F)F)c(F)c3)C(=O)N2C1 [PP1651] |  |  | 8.64 |  |  | A (a compound having 10 or more and less than 20 is denoted as A) | B (a compound having 3 or more and less than 10 is denoted as B) |
| CCCN(C)C(=O)[C@@H]1CC(=O)N(C)[C@@H](COCC)C(=O)N[C@@H]([C@@H](C)CC)C(=O)N(C)CC(=O)N(C)[C@H]2C/C=C\CCN(C2=O)[C@@H](Cc2ccc(C(F)(F)F)cc2)C(=O)N(C)CC(=O)N[C@@H](CCc2ccc(C(F)(F)F)c(OC)c2)C(=O)N2C[C@@H](C)C[C@H]2C(=O)NC2(CC(C)(C)C2)C(=O)N(C)[C@@H](C2CCCC2)C(=O)N1C [PP1991] |  |  | 7.97 | A (a compound having 10 or more and less than 20 is denoted as A) | A (a compound having 10 or more and less than 20 is denoted as A) |  |  |
| CCO[C@@H]1C[C@H]2C(=O)NC3(CCC3)C(=O)N(C)[C@@H](C3CCCC3)C(=O)N(C)[C@H](C(=O)N(C)C)CC(=O)N(C)[C@@H](C)C(=O)N[C@@H]([C@@H](C)CC)C(=O)N(C)CC(=O)N(C)[C@H]3CCCCCN(C3=O)[C@@H](Cc3ccc(C(F)(F)F)cc3)C(=O)N(C)CC(=O)N[C@@H](CCc3cc(F)c(C(F)(F)F)c(F)c3)C(=O)N2C1 [PP0476] |  |  | 8.31 | B (a compound having 3 or more and less than 10 is denoted as B) | B (a compound having 3 or more and less than 10 is denoted as B) |  |  |
